According to patent US20070129344A1, “Bicyclic 6-alkylidene-penem beta-lactamase inhibitors and beta-lactam antibiotic combination: a broad spectrum antibiotic” (priority 2005, published 2007):
Read-outs that look alike come from different tables or passages of the source.

Legend:
[1] = system: E. coli GAR 5929 TEM, OXA, Act-1, CTX (By PCR only); test: MIC microbroth dilution; β-lactamase class A, C, D; assay type: cell-based
Description: (§1) The in vitro activities of the antibiotics were determined by the microbroth dilution method as recommended by the National Committee for Clinical Laboratory Standards (NCCLS). (NCCLS. 2000. Methods for Dilution Antimicrobial Susceptibility Tests for Bacteria That Grow Aerobically; Approved Standards: M7-A5, vol. 19. National Committee for Clinical Laboratory Standards, Villanova, Pa.). Mueller-Hinton II broth (MHBII)(BBL Cockeysville, Md.), was used for the testing procedure. […]. The plates were incubated for 18-22 hours at 35° C. in ambient air.

[2] = system: E. coli GC 4971 OXA-1, TEM-1; test: MIC microbroth dilution; β-lactamase class A, D; assay type: cell-based
Description: as §1

[3] = system: E. coli GC 1807 OXA-7; test: MIC microbroth dilution; β-lactamase class D; assay type: cell-based
Description: as §1

[4] = system: E. coli GC 1480 OXA-1; test: MIC microbroth dilution; β-lactamase class D; assay type: cell-based
Description: as §1

[5] = system: E. coli GAR 6649 TEM, OXA, CTX (By PCR only); test: MIC microbroth dilution; β-lactamase class A, A (ESBL), D; assay type: cell-based
Description: as §1

[6] = system: E. coli GC 2400 (TEM-43); test: MIC microbroth dilution; β-lactamase class A (ESBL); assay type: cell-based
Description: as §1

[7] = system: S. typhimurium GC 4197 CTX-M-5; test: as above; assay type: cell-based
Description: as §1

[8] = system: E. coli GC 2300 (TEM-28); test: as above; assay type: cell-based
Description: as §1

[9] = system: E. coli GC 2920 (IRT-2); test: MIC microbroth dilution; β-lactamase class A (IRT); assay type: cell-based
Description: as §1

[10] = system: M. morganii GC 1617 TEM-10 + inducible AmpC; test: MIC microbroth dilution; β-lactamase class A (ESBL), C; assay type: cell-based
Description: as §1

[11] = system: E. cloacae GC 7052 SHV-5, Amp C inducable; test: as above; assay type: cell-based
Description: as §1

[12] = system: E. aerogenes GC 7036 TEM-24, Amp C inducable; test: as above; assay type: cell-based
Description: as §1

[13] = system: E. aerogenes GC 7039 TEM-4, Amp C inducable; test: as above; assay type: cell-based
Description: as §1

[14] = system: E. cloacae GC 7065 TEM-26, SHV-12 Amp C inducable; test: as above; assay type: cell-based
Description: as §1

[15] = system: S. maltophilia GC 1712 (L1); test: MIC microbroth dilution; β-lactamase class B; assay type: cell-based
Description: as §1

[16] = system: E. coli GC 2847 (TEM-1); test: MIC microbroth dilution; β-lactamase class A; assay type: cell-based
Description: as §1

[17] = system: K. pn GC 6639 (SHV-13); test: MIC microbroth dilution; β-lactamase class A (ESBL); assay type: cell-based, K. pneumoniae
Description: as §1

[18] = system: K. pn GC 1516 (TEM-26); test: as above; assay type: cell-based, K. pneumoniae
Description: as §1

[19] = system: K. pn GC 1830 (SHV-2); test: as above; assay type: cell-based, K. pneumoniae
Description: as §1

[20] = system: K. pn GC 1510 (TEM-10); test: as above; assay type: cell-based, K. pneumoniae
Description: as §1

[21] = system: K. pn GC 1832 (SHV-4); test: as above; assay type: cell-based, K. pneumoniae
Description: as §1

[22] = system: E. coli GC 6197 (TEM-1 + SHV-7 + CMY-2); test: MIC microbroth dilution; β-lactamase class A, A (ESBL), C; assay type: cell-based
Description: as §1

[23] = system: E. coli GC 2149 (ACT-1; TEM-1 + pl 5.6); test: as above; assay type: cell-based
Description: as §1

[24] = system: K. pneumoniae GC 2826 Act 1 + 3 additional; test: as above; assay type: cell-based
Description: as §1

[25] = system: K. pneumoniae GC 2825 Act 1 + 3 additional; test: as above; assay type: cell-based
Description: as §1

[26] = system: E. cloacae GC 1475 (P99); test: MIC microbroth dilution; β-lactamase class C; assay type: cell-based
Description: as §1

[27] = system: A. baumannii GC 7684 AmpC, AmpC; test: MIC microbroth dilution; β-lactamase class C; assay type: cell-based
Description: as §1

[28] = system: S. marcescens PT 696 Inducible AmpC; test: MIC microbroth dilution; β-lactamase class C; assay type: cell-based
Description: as §1

[29] = system: P. aeruginosa GC 3153 Inducible AmpC; test: MIC microbroth dilution; β-lactamase class C; assay type: cell-based
Description: as §1

[30] = system: E. cloacae GC 1477 (AmpC); test: MIC microbroth dilution; β-lactamase class C; assay type: cell-based
Description: as §1

[31] = system: E. aerogenes 1697-MP GC 7845 AmpC; test: MIC microbroth dilution; β-lactamase class C; assay type: cell-based; conditions: E. aerogenes GC 7845
Description: as §1

[32] = system: S. marcescens GC 4132 (AmpC); test: MIC microbroth dilution; β-lactamase class C; assay type: cell-based
Description: as §1

[33] = system: P. aeruginosa GC 1763 AmpC-inducible; test: MIC microbroth dilution; β-lactamase class C; assay type: cell-based
Description: as §1

[34] = system: K. pn GC 2391 (pl 5.4; 5.6; 7.6; 8.7 B-lactamases); test: MIC microbroth dilution; β-lactamase class A, A (ESBL), C; assay type: cell-based, K. pneumoniae
Description: as §1

[35] = Cefepime alone, control of Compound 2 test
[36] = Escherichia coli, Cefepime alone, control of Compound 1 test, read-out: MIC
[37] = Escherichia coli, Cefepime alone, control of Compound 2 test, read-out: MIC
[38] = Enterobacter cloacae, Cefepime alone, control of Compound 1 test, read-out: MIC
[39] = Klebsiella aerogenes, Cefepime alone, control of Compound 1 test, read-out: MIC
[40] = Klebsiella aerogenes, Cefepime alone, control of Compound 2 test, read-out: MIC
[41] = Enterobacter cloacae, Cefepime alone, control of Compound 2 test, read-out: MIC
[42] = Klebsiella pneumoniae, Cefepime alone, control of Compound 1 test, read-out: MIC
[43] = Klebsiella pneumoniae, Cefepime alone, control of Compound 2 test, read-out: MIC
[44] = Serratia marcescens, Cefepime alone, control of Compound 1 test, read-out: MIC
[45] = Serratia marcescens, Cefepime alone, control of Compound 2 test, read-out: MIC
[46] = Pseudomonas aeruginosa, Cefepime alone, control of Compound 1 test, read-out: MIC

Measured: MIC

O=C([O-])C1=CS[C@@H]2/C(=C\c3cn4c(n3)CCC4)C(=O)N12.[Na+] [Compound 1, (5R), (6Z)-6-(6,7-Dihydro-5H-pyrrolo[1,2-a]imidazol-2-ylmethylene)-7-oxo-4-thia-1-aza-bicyclo[3.2.0]hept-2-ene-2-carboxylic Acid, Sodium Salt]
0.03 µg/mL: [13]; Cefepime + 4 ug/ml Compound 1 | [19]; Cefepime + 4 ug/ml Compound 1
0.06 µg/mL: [1]; Cefepime + 4 ug/ml Compound 1 | [4]; E. coli GC 1480, Cefepime + 4 ug/ml Compound 1 | [9]; Cefepime + 4 ug/ml Compound 1 | [12]; Cefepime + 4 ug/ml Compound 1 | [14]; Cefepime + 4 ug/ml Compound 1 | [16]; Cefepime + 4 ug/ml Compound 1 | [20]; Cefepime + 4 ug/ml Compound 1 | [21]; Cefepime + 4 ug/ml Compound 1 | [28]; Cefepime + 4 ug/ml Compound 1 | [31]; Cefepime + 4 ug/ml Compound 1
0.25 µg/mL: [8]; Cefepime + 4 ug/ml Compound 1 | [17]; Cefepime + 4 ug/ml Compound 1 | [18]; Cefepime + 4 ug/ml Compound 1 | [30]; Cefepime + 4 ug/ml Compound 1
16 µg/mL: [15]; Cefepime + 4 ug/ml Compound 1
4 µg/mL: [22]; Cefepime + 4 ug/ml Compound 1
0.50 µg/mL: [6]; Cefepime + 4 ug/ml Compound 1 | [23]; Cefepime + 4 ug/ml Compound 1 | [34]; Cefepime + 4 ug/ml Compound 1
8 µg/mL: [27]; Cefepime + 4 ug/ml Compound 1 | [29]; Cefepime + 4 ug/ml Compound 1
1 µg/mL: [5]; Cefepime + 4 ug/ml Compound 1 | [7]; Cefepime + 4 ug/ml Compound 1 | [11]; Cefepime + 4 ug/ml Compound 1 | [24]; Cefepime + 4 ug/ml Compound 1 | [33]; Cefepime + 4 ug/ml Compound 1
0.12 µg/mL: [2]; Cefepime + 4 ug/ml Compound 1 | [10]; Cefepime + 4 ug/ml Compound 1 | [25]; Cefepime + 4 ug/ml Compound 1 | [26]; Cefepime + 4 ug/ml Compound 1 | [32]; Cefepime + 4 ug/ml Compound 1
<0.015 µg/mL: [3]; E. coli GC 1807, Cefepime + 4 ug/ml Compound 1

CO/N=C(\C(=O)N[C@@H]1C(=O)N2C(C(=O)[O-])=C(C[N+]3(C)CCCC3)CS[C@H]12)c1csc(N)n1 [Cefepime, reference compound]
0.12 µg/mL: [3]; Escherichia coli, GC1807OXA7, E. coli GC 1807, Cefepime alone, control of Compound 1 test, read-out: MIC | [16]; [36]
> 16 µg/mL: [1]; [36] | [5]; [36] | [6]; [36] | [7]; Salmonella enterica, Cefepime alone, control of Compound 1 test, read-out: MIC | [13]; [40] | [15]; Stenotrophomonas maltophilia, Cefepime alone, control of Compound 1 test, read-out: MIC | [17]; [42] | [18]; [42] | [22]; [36]
16 µg/mL: [8]; [35] | [8]; [36] | [11]; [35] | [11]; [38] | [13]; [39] | [14]; [41] | [23]; [37] | [27]; Acinetobacter baumannii, Cefepime alone, control of Compound 1 test, read-out: MIC | [27]; [35] | [29]; [35] | [29]; [46] | [34]; [42]
0.06 µg/mL: [9]; [35] | [9]; [36] | [16]; [37]
0.5 µg/mL: [19]; [43] | [20]; [42] | [28]; [45] | [32]; [44]
0.25 µg/mL: [3]; Escherichia coli, GC1807OXA7, E. coli GC 1807, Cefepime alone, control of Compound 2 test, read-out: MIC | [10]; [35] | [10]; Morganella morganii, Cefepime alone, control of Compound 1 test, read-out: MIC | [28]; [44] | [31]; [35] | [31]; [39]
1 µg/mL: [19]; [42]
8 µg/mL: [23]; [36] | [24]; [35] | [24]; [42]
>16 µg/mL: [1]; [35] | [5]; [35] | [6]; [35] | [7]; [35] | [15]; [35] | [17]; [35] | [18]; [35] | [22]; [35]
2 µg/mL: [2]; [36] | [4]; Escherichia coli, GC1480OXA1, E. coli GC 1480, Cefepime alone, control of Compound 2 test, read-out: MIC | [12]; [39] | [20]; [43] | [21]; [35] | [21]; [42] | [25]; [35] | [25]; [42] | [26]; [35] | [26]; [38] | [30]; [41] | [32]; [45] | [33]; [35] | [33]; [46]
4 µg/mL: [2]; [37] | [4]; Escherichia coli, GC1480OXA1, E. coli GC 1480, Cefepime alone, control of Compound 1 test, read-out: MIC | [12]; [40] | [14]; [38] | [30]; [38] | [34]; [43]
